# Patent US12485115B2, “Biased NMDA receptor modulators and uses thereof” (EDWARD VIA COLLEGE OF OSTEOPATHIC MEDICINE, priority 2018, dated 2025)
# Where two headings read alike, the source gives them in different places.
# Tests used:
# Type in all cases: cell-based
# GluN1/2A/2B (TH) = GluN1/2A/2B (TH) (Homo sapiens, UniProt Q05586+Q12879+Q13224); assay: NMDA receptor subunit selectivity of CNS004 analogs, average response, TH; conditions: compound 100 μM
# GluN1/2B = GluN1/2B (Homo sapiens, UniProt Q05586+Q13224); assay: NMDA receptor subunit selectivity of CNS004 analogs, average response, 1/2B; conditions: compound 100 μM
# GluN1/2A = GluN1/2A (Homo sapiens, UniProt Q05586+Q12879); assay: NMDA receptor subunit selectivity of CNS004 analogs, average response, 1/2A; conditions: compound 100 μM
# GluN1/2B NMDA receptor = GluN1/2B NMDA receptor (Homo sapiens, UniProt Q05586+Q13224); assay: Two-electrode voltage clamp (TEVC), Xenopus oocytes expressing recombinant GluN1/2B
# Procedure: (§1) Two-electrode voltage clamp)TEVC) and patch clamp electrophysiology techniques were used to study CNS004 induced changes in NMDA receptor functions. Briefly, appropriate combinations of cRNA encoding different NMDA receptor subunits were injected into Xenopus oocytes and incubated at about 18° C. for about 2-4 days before TEVC assays. TEVC assays were performed with a −60 mV holding potential. […]
# GluN1/2C NMDA receptor = GluN1/2C NMDA receptor (Homo sapiens, UniProt Q05586+Q14957); assay: Two-electrode voltage clamp (TEVC), Xenopus oocytes expressing recombinant GluN1/2C; conditions: 10 μM glycine and 10 μM glutamate; EC50 ND, n=6
# Procedure: as §1
# [1] = biological target: GluN1/2A/2B triheteromeric NMDA receptor (Homo sapiens, UniProt Q05586+Q12879+Q13224); assay: Two-electrode voltage clamp (TEVC), Xenopus oocytes expressing recombinant GluN1/2A/2B
# Procedure: Briefly, appropriate combinations of cRNA encoding different NMDA receptor subunits were injected into Xenopus oocytes and incubated at about 18° C. for about 2-4 days before TEVC assays. TEVC assays were performed with a −60 mV holding potential.
# GluN1/2A NMDA receptor [2] = biological target: T1, GluN1/2A NMDA receptor (Homo sapiens, UniProt Q05586+Q12879); assay: Patch clamp electrophysiology, HEK293T cells expressing recombinant GluN1/2A; conditions: 100 μM CNS004
# Procedure: (§2) Patch clamp electrophysiology was also performed. Briefly, HEK293T cells were transfected with cDNA encoding NMDA receptor subunits 18-24 hours prior to patch clamp procedures. The effect of CNS004 on the agonist induced NMDA receptor function was evaluated at −80 mV.
# GluN1/2A NMDA receptor [3] = biological target: T1, GluN1/2A NMDA receptor; assay: Two-electrode voltage clamp (TEVC), Xenopus oocytes expressing recombinant GluN1/2A
# Procedure: as §1
# GluN1/2D NMDA receptor = GluN1/2D NMDA receptor (Homo sapiens, UniProt O15399+Q05586); assay: Two-electrode voltage clamp (TEVC), Xenopus oocytes expressing recombinant GluN1/2D; conditions: 10 μM glycine and 10 μM glutamate; EC50 ND, n=5
# Procedure: as §1
# [4] = biological target: T2, GluN1/2A/2B NMDA receptor (Homo sapiens, UniProt Q05586+Q12879+Q13224); assay: Patch clamp electrophysiology, HEK293T cells expressing recombinant GluN1/2A/2B
# T2 construct: expressed in transfected cells; host or cells: HEK293T
# Procedure: as §2
# GluN1/2A/2B triheteromeric NMDA receptor, sequence (Q12879 23-1464, other chains not shown): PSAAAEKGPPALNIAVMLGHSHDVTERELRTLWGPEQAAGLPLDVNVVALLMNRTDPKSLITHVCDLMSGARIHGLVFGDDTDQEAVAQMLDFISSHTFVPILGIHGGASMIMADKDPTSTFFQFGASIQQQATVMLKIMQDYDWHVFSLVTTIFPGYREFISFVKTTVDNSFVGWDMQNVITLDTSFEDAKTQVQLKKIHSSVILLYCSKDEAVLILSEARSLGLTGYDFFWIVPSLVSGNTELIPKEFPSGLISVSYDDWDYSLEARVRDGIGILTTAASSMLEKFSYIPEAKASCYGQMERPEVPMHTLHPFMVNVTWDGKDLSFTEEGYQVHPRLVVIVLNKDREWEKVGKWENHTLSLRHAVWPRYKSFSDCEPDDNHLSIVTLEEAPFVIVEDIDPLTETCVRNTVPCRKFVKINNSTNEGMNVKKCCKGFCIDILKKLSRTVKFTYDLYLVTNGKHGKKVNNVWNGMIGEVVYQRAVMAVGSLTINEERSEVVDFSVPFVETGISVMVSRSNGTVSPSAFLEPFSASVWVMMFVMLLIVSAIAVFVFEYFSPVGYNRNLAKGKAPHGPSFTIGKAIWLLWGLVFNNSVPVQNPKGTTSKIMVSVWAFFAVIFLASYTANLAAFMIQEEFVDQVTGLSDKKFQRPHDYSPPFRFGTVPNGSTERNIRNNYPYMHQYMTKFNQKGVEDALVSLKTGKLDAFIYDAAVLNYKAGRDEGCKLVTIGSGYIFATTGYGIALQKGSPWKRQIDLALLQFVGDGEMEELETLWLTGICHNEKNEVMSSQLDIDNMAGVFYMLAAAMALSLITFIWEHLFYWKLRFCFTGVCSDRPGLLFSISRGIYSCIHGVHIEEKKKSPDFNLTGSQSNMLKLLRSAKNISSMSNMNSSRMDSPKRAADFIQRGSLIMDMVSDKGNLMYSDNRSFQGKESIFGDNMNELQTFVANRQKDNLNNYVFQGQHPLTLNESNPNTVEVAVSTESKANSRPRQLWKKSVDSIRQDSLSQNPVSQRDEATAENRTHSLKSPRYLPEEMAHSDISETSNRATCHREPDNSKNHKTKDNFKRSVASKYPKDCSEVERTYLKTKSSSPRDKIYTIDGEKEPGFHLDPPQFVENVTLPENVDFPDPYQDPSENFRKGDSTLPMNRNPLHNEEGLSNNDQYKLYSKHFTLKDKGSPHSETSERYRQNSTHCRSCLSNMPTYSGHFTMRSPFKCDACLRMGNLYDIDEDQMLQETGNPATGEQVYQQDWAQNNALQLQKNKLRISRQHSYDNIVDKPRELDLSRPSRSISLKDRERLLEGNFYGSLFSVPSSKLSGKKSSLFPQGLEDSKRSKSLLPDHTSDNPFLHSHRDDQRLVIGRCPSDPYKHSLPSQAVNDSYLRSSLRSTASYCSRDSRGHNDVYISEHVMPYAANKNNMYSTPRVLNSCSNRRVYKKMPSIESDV
# GluN1/2A/2B triheteromeric NMDA receptor, sequence (Q13224 27-1484, other chains not shown): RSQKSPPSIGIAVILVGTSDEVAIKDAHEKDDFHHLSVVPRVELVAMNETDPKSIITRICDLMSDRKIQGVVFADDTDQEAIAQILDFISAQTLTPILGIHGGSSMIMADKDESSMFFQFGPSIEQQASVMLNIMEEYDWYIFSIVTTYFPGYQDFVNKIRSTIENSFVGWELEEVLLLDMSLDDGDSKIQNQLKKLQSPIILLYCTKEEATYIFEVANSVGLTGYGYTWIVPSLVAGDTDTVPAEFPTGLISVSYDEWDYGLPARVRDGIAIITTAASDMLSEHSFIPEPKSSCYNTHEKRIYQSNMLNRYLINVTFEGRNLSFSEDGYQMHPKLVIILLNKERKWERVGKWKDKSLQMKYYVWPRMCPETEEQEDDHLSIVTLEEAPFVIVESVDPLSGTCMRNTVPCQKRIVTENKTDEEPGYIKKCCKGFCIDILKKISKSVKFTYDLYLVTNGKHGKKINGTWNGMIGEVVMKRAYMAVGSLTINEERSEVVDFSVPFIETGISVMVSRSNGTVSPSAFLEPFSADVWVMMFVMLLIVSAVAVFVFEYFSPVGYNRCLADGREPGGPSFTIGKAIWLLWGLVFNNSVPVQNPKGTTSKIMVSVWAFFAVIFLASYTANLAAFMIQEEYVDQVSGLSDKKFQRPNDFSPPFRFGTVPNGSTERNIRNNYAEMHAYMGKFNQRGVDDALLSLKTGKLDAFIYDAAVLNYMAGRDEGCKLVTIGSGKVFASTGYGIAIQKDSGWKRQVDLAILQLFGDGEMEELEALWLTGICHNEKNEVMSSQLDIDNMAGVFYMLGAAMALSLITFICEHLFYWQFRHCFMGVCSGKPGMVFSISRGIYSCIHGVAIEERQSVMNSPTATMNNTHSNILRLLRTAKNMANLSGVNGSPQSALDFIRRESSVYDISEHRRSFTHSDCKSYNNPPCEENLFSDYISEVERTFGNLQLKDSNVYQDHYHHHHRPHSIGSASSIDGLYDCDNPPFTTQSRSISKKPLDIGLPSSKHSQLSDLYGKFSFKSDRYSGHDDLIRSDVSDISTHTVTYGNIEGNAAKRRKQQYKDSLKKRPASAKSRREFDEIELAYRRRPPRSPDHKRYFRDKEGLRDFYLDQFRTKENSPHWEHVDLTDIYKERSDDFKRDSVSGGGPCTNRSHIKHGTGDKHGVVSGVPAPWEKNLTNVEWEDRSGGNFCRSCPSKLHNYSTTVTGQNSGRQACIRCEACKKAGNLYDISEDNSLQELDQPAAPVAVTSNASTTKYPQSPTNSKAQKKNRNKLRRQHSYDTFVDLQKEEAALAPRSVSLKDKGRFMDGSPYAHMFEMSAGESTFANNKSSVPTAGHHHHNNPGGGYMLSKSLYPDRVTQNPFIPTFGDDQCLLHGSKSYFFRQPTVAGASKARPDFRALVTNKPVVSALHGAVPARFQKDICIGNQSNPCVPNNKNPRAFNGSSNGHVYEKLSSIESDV
# T1 sequence (Q12879 23-1464, other chains not shown): as the sequence (Q12879 23-1464, other chains not shown) above
smiles,measurement,setting,value
O=C(NC(=S)N1CCCCC1c1cccnc1)c1cccc(F)n1 (stereo not drawn) [Compound 40],"Average Response (% inhibition), TH",GluN1/2A/2B (TH),−3.494 % inhibition
same,"Average Response (% inhibition), 1/2B",GluN1/2B,−56.1908 % inhibition
same,"Average Response (% inhibition), 1/2A",GluN1/2A,−3.81 % inhibition
Fc1ccc(C(=S)NC(=S)N2CCCCC2c2cccnc2)cc1 (stereo not drawn) [Compound 3],"Average Response (% inhibition), TH",GluN1/2A/2B (TH),−13.1155 % inhibition
same,"Average Response (% inhibition), 1/2B",GluN1/2B,−45.1553 % inhibition
same,"Average Response (% inhibition), 1/2A",GluN1/2A,−52.246 % inhibition
O=C(NC(=S)N1CCCCC1c1cccnc1)c1ccc(CCCF)cc1 (stereo not drawn) [Compound 6],"Average Response (% inhibition), TH",GluN1/2A/2B (TH),7.444 % inhibition
same,"Average Response (% inhibition), 1/2B",GluN1/2B,6.739 % inhibition
same,"Average Response (% inhibition), 1/2A",GluN1/2A,−21.076 % inhibition
COCCCc1ccc(C(=O)NC(=S)N2CCCCC2c2cccnc2)cc1 (stereo not drawn) [Compound 8],"Average Response (% inhibition), TH",GluN1/2A/2B (TH),8.377 % inhibition
same,"Average Response (% inhibition), 1/2B",GluN1/2B,6.998 % inhibition
same,"Average Response (% inhibition), 1/2A",GluN1/2A,0.4959 % inhibition
O=C(NC(=S)N1CCCCC1c1cccnc1)c1ccc(Cl)c(F)c1 (stereo not drawn) [Compound 9],"Average Response (% inhibition), TH",GluN1/2A/2B (TH),−11.9509 % inhibition
same,"Average Response (% inhibition), 1/2B",GluN1/2B,−19.0618 % inhibition
same,"Average Response (% inhibition), 1/2A",GluN1/2A,−31.9381 % inhibition
O=C(NC(=S)N1CCCCC1c1cccnc1)c1ccc(C(F)(F)F)cc1 (stereo not drawn) [Compound 2],"Average Response (% inhibition), TH",GluN1/2A/2B (TH),−3.954 % inhibition
same,"Average Response (% inhibition), 1/2B",GluN1/2B,−14.5863 % inhibition
same,"Average Response (% inhibition), 1/2A",GluN1/2A,−76.1696 % inhibition
"O=C(NC(=S)N1CCCCC1c1cccnc1)c1ccc(F)cc1 (stereo not drawn) [CNS004, 4-Fluoro-N-(2-(pyridin-3-yl)piperidine-1-carbonothioyl)benzamide]",change of glycine potency on GluN1/2B,"GluN1/2B NMDA receptor; 30 uM CNS4, glutamate 100 uM",increase in glycine potency
same,activity on GluN1/2B (averaged dose response curve),"GluN1/2B NMDA receptor; 100 μM glycine and 100 μM glutamate, EC50 not determined, n=4",minimal activity
same,EC50,GluN1/2B NMDA receptor; read-out: EC50 of potentiation of GluN1/2B (averaged and normalized DRC),8.67 ± 2.77 µM
same,effect on GluN1/2C (DRC),GluN1/2C NMDA receptor,no activity
same,EC50,"[1]; 10 μM glycine and 10 μM glutamate, n=6, read-out: EC50 of potentiation of GluN1/2A/2B (averaged and normalized DRC)",39 ± 22.4 µM
same,change of glycine potency on GluN1/2A/2B,"[1]; 30 uM CNS4, glutamate 100 uM",increase in glycine potency
same,change of glutamate potency on TH (GluN1/2A/2B),"[1]; 30 uM CNS4, glycine 100 uM",increase in glutamate potency
same,effect on glycine and/or glutamate potency in GluN1/2A/2B (FIGS. 15A-15H),[1]; 30 μM and 100 μM CNS004,increases Glycine and/or Glutamate Potency
same,effect on agonist induced current in GluN1/2A/2B in three sequences of application,"[1]; 100 μM CNS004, 100 μM glycine+100 μM glutamate, co-application, agonist pre-application, CNS004 pre-application",potentiation
same,EC50,"[1]; 100 μM glycine and 100 μM glutamate, n=5, read-out: EC50 of potentiation of GluN1/2A/2B (averaged dose response curve)",160 ± 15.4 µM
same,effect of pre-application of CNS004 alone on agonist induced current response,"[1]; recombinant GluN1/2A, GluN1/2B and GluN1/2A/2B traces (FIG. 1E)",did not change the agonist induced current response
same,receptor activation in the absence of agonist glutamate or glycine,"[1]; recombinant GluN1/2A, GluN1/2B and GluN1/2A/2B traces (FIG. 1E), no agonist",did not activate the receptor
same,"effect of co-application with agonist on steady-state currents, GluN1/2A",GluN1/2A NMDA receptor [2]; 30 μM glycine and 100 μM glutamate,potentiates steady-state currents
same,effect on 1/2A receptor currents at reduced glutamate,GluN1/2A NMDA receptor [2]; 100 μM glycine and 300 nM glutamate,largely potentiated
same,effect on GluN1/2A (DRC),"GluN1/2A NMDA receptor [3]; 10 μM glycine and 10 μM glutamate, EC50 ND, n=6",minimally inhibited
same,change of glycine potency on GluN1/2A,"GluN1/2A NMDA receptor [3]; 30 uM CNS4, glutamate 100 uM",increase in glycine potency
same,change of glutamate potency on GluN1/2A,"GluN1/2A NMDA receptor [3]; 30 uM CNS4, glycine 100 uM",increase in glutamate potency
same,activity on GluN1/2A (averaged dose response curve),"GluN1/2A NMDA receptor [3]; 100 μM glycine and 100 μM glutamate, EC50 not determined, n=3",minimal activity
same,effect on GluN1/2D (DRC),GluN1/2D NMDA receptor,minimally inhibited
same,"effect of co-application with agonist on steady-state currents, GluN1/2A/2B","[4]; 100 μM CNS004, 30 μM glycine and 100 μM glutamate",potentiates steady-state currents
same,effect on 1/2A/2B currents at reduced glutamate,"[4]; 100 μM CNS004, 100 μM glycine and 300 nM glutamate",inhibits
same,"effect of CNS004 pre-application on steady-state currents, GluN1/2A/2B","[4]; 100 μM CNS004 pre-application, 30 μM glycine and 100 μM glutamate",steep reduction in steady-state currents
same,"effect of CNS004 pre-application on desensitization, GluN1/2A/2B","[4]; 100 μM CNS004 pre-application, 30 μM glycine and 100 μM glutamate, GluN1/2A/2B only",promotes desensitization
O=C(NC(=O)N1CCCCC1c1cccnc1)c1ccc(F)cc1 (stereo not drawn) [Compound 4],"Average Response (% inhibition), TH",GluN1/2A/2B (TH),4.722 % inhibition
same,"Average Response (% inhibition), 1/2B",GluN1/2B,5.755 % inhibition
same,"Average Response (% inhibition), 1/2A",GluN1/2A,20.43 % inhibition
O=C(NC(=S)N1CCCCC1c1cccnc1)c1ccc(C2CC2)cc1 (stereo not drawn) [Compound 5],"Average Response (% inhibition), TH",GluN1/2A/2B (TH),−2.571 % inhibition
same,"Average Response (% inhibition), 1/2B",GluN1/2B,9.468 % inhibition
same,"Average Response (% inhibition), 1/2A",GluN1/2A,7.117 % inhibition
O=C(NC(=S)N1CCCCC1c1cccnc1)c1ccc(P(=O)(O)O)cc1 (stereo not drawn) [Compound 7],"Average Response (% inhibition), TH",GluN1/2A/2B (TH),16.4617 % inhibition
same,"Average Response (% inhibition), 1/2B",GluN1/2B,3.872 % inhibition
same,"Average Response (% inhibition), 1/2A",GluN1/2A,−1.858 % inhibition
"CC(C(O)c1ccc(O)cc1)N1CCC(Cc2ccccc2)CC1 (stereo not drawn) [ifenprodil, reference compound]",selectivity for GluN1/2A/2B receptor (FIG. 9G),[1]; GluN1/2B selective antagonist,intermediate selectivity
COc1cccc(C(=O)NC(=S)N2CCCCC2c2cccnc2)c1OC (stereo not drawn) [Compound 41],"Average Response (% inhibition), TH",GluN1/2A/2B (TH),27.54 % inhibition
same,"Average Response (% inhibition), 1/2B",GluN1/2B,0.6785 % inhibition
same,"Average Response (% inhibition), 1/2A",GluN1/2A,15.8054 % inhibition
